The values below come from patent publication US10213429B2, “Imidazo-pyrazinyl derivatives useful as soluble guanylate cyclase activators” (Merck Sharp & Dohme Corp., priority 2015, dated 2019).

For this assay, the target named is T1, sGC α1/β1 heterodimer (Homo sapiens, UniProt Q02108+Q02153).
T1 construct: expressed in transfected cells; host or cells: CHO-K1 (clone #7, CHO-K1/sGC)
T1 sequence (Q02108 1-690): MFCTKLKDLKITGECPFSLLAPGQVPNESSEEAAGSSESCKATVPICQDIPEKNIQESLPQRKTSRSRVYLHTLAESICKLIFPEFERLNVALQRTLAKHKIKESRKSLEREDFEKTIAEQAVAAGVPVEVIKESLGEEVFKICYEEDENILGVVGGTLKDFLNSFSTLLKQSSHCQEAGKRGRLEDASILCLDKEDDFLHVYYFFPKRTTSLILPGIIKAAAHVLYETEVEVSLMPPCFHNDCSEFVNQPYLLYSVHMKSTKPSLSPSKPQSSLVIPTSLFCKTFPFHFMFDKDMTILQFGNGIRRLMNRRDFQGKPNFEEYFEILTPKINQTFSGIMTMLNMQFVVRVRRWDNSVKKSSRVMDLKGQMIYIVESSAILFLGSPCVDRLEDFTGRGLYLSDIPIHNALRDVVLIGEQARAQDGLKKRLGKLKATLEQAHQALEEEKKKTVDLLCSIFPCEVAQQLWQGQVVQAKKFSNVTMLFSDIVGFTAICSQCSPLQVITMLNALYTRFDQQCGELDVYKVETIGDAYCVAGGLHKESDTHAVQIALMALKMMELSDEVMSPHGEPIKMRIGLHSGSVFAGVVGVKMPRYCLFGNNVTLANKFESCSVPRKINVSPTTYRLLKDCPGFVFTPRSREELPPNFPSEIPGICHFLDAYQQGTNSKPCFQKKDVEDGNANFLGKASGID
T1 sequence (Q02153 1-619): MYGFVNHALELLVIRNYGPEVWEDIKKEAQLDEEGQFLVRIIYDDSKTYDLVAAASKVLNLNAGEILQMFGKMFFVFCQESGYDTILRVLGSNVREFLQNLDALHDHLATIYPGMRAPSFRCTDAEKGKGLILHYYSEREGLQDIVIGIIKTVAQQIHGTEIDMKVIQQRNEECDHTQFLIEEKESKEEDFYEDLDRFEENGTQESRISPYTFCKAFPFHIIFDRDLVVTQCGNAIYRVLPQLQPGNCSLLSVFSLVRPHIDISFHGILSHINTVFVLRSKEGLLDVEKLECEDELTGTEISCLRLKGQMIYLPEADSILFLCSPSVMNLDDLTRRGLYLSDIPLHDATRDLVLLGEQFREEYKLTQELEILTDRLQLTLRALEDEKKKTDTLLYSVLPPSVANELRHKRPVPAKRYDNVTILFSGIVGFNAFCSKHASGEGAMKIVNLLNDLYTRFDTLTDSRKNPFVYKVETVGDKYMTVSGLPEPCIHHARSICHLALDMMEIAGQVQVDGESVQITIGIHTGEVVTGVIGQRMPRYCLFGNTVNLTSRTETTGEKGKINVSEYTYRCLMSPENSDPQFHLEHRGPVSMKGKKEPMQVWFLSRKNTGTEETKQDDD
Kind of assay: Cell-Based sGC Functional Assay (CASA Assay), cGMP by HTRF in CHO-K1/sGC cells. The conditions noted are these: for Emax: CHO-K1, percent activation relative to maximum cGMP production of Compound A (= 100%), read-out: % Act.; for EC50: cGMP production, 1 hr at 37° C., 4P fit, presence or absence of 1 μM DETA-NO not given, read-out: IP (nM) (inflection point); for % Act.: percent activation relative to maximum cGMP production of Compound A (= 100%). From the text: Biological Assay 1: Cell-Based sGC Functional Assay (CASA Assay)
sGC is a heme-containing enzyme that converts GTP to secondary messenger cGMP. Increases in cGMP levels affect several physiological processes including vasorelaxation through multiple downstream pathways. […] Heme-dependent activators (HDAs) preferentially activate sGC containing a ferrous heme group. To determine the effect of sGC activators on enzyme activity, the CASA assay was developed to monitor the generation of cGMP in a cell line that stably expresses the heterodimeric sGC protein.
A CHO-K1 cell line stably expressing the sGC α1/β1 heterodimer was generated using a standard transfection protocol. CHO-K1 cells were transfected with plasmids pIREShyghsGCα1 and pIRESneo-hsGCβ1 simultaneously using FUGENE reagent. Clones that stably express both subunits were selected with hygromycin and neomycin for ˜2 weeks. Clone #7 was chosen for the assay and was designated CHO-K1/sGC. CHO-K1/sGC cells were maintained in F-K12 medium containing 10% heat-inactivated Fetal Bovine Serum (FBS), 100 μg/mL penicillin/streptomycin, 0.5 mg/mL hygromycin and 0.25 mg/mL G418. The cells were then cryopreserved in LN2. On the day of the assay, cells were thawed and resuspended in EBSS Assay Buffer (Sigma, E3024) supplemented with 5 mM MgCl2, 10 mM HEPES (4-(2-hydroxyethyl)piperazine-1-ethanesulfonic acid) and 0.05% BSA (bovine serum albumin) (EAB) and cell density was then adjusted to 4×10^5/mL with EAB. IBMX (3-isobutyl-1-methylxanthin, 0.5 mM) was added to inhibit degradation of cGMP. Compounds were diluted from DMSO stock solutions and added to the assay at a final DMSO concentration of 2.5%. Cells were incubated with compounds in the presence and absence of 1 μM of Diethylenetriamine/nitric oxide adduct (DETA-NO; Sigma, 17018) for 1 hr at 37° C. At the end of the incubation period, the reaction was terminated and the cells were lysed with the detection reagents from Cisbio Kits. The level of intracellular cGMP was determined using an HTRF-based assay kit (CisBio, 62GM2PEC), which detects the displacement of a fluorescence labeled cGMP from its specific antibody. The cGMP produced by test compounds was directly compared to the maximum cGMP production (this value was set to equal 100% activation.) of the published sGC-HDA Compound A:
[drawing 175] (Example 1 in WO 2010/065275, published Jun. 10, 2010). The test compounds' activities were then expressed as a percentage of Compound A, the standard in every experiment. This percent activation was calculated either in the presence or absence of DETA-NO which was then plotted. IP and maximum fold induction was derived using ADA analysis software for 4P fit.
The compounds in the Examples of the instant invention had inflection points (IP) less than or equal to 10 μM and most less than or equal to about 1 μM.

Molecules are shown by their SMILES.

As for `CC1(c2ccc(Cl)c(F)c2)C(=O)Nc2nc(-c3cn4ccnc4c(CCC(F)(F)F)n3)nc(O)c21` (stereo not drawn) [Example 13B, 5-(4-chloro-3-fluorophenyl)-4-hydroxy-5-methyl-2-(8-(3,3,3-trifluoropropyl)imidazo[1,2-a]pyrazin-6-yl)-5H-pyrrolo[2,3-d]pyrimidin-6(7H)-one], the Emax came out at 70% and the EC50 was determined as 183 nM.

On to `CC1(c2ccc(Cl)cc2)C(=O)Nc2nc(-c3cn4ccnc4c(CCC(F)(F)F)n3)ncc21` (stereo not drawn) [Example 61A, 5-(4-chlorophenyl)-5-methyl-2-(8-(3,3,3-trifluoropropyl)imidazo[1,2-a]pyrazin-6-yl)-5H-pyrrolo[2,3-d]pyrimidin-6(7H)-one], for which the Emax was 104% and the EC50 came to 401 nM.

For the molecule `CC1(c2ccc(Cl)cc2)C(=O)Nc2nc(-c3cn4ccnc4c(OCCC4CC4)n3)nc(O)c21` (stereo not drawn) [Example 94A, 5-(4-Chlorophenyl)-2-(8-(2-cyclopropylethoxy)imidazo[1,2-a]pyrazin-6-yl)-4-hydroxy-5-methyl-5H-pyrrolo[2,3-d]pyrimidin-6(7H)-one], the Emax is 90% and the EC50 was 136 nM.

For `COc1nc(-c2cn3ccnc3c(CCC(F)(F)C(F)(F)F)n2)nc2c1C(C)(c1ccc(F)cc1)C(=O)N2` (stereo not drawn) [Example 89A, 5-(4-Fluorophenyl)-4-methoxy-5-methyl-2-(8-(3,3,4,4,4-pentafluorobutyl)imidazo[1,2-a]pyrazin-6-yl)-5H-pyrrolo[2,3-d]pyrimidin-6(7H)-one], the Emax stood at 110% and the EC50 was 606 nM.

On to `CCCCc1nc(-c2nc(O)c3c(n2)NC(=O)C3(c2ccc(F)c(F)c2)C2CC2)cn2ccnc12` (stereo not drawn) [Example 19A, 2-(8-butylimidazo[1,2-a]pyrazin-6-yl)-5-cyclopropyl-5-(3,4-difluorophenyl)-4-hydroxy-5H-pyrrolo[2,3-d]pyrimidin-6(7H)-one], for which the Emax is 128% and the EC50 came to 107 nM.

Take `CC1(c2ccc(F)cc2)C(=O)Nc2nc(-c3cn4ccnc4c(Cc4ccc(F)cc4)n3)ncc21` (stereo not drawn) [Example 80A, 2-(8-(4-fluorobenzyl)imidazo[1,2-a]pyrazin-6-yl)-5-(4-fluorophenyl)-5-methyl-5H-pyrrolo[2,3-d]pyrimidin-6(7H)-one]: the Emax turned out to be 111% and the EC50 was determined as 122 nM.

For the molecule `CC1(c2ccc(F)cc2)C(=O)Nc2nc(-c3cn4ccnc4c(CC4CCC4)n3)ncc21` (stereo not drawn) [Example 63A, 2-(8-(cyclobutylmethyl)imidazo[1,2-a]pyrazin-6-yl)-5-(4-fluorophenyl)-5-methyl-5H-pyrrolo[2,3-d]pyrimidin-6(7H)-one], the Emax stood at 107% and the EC50 was 10 nM.

On to `CC1(C(=O)NC2CC2)C(=O)Nc2nc(-c3cn4ccnc4c(Cc4ccccc4F)n3)ncc21` (single isomer, unassigned) [Example 69A, N-cyclopropyl-2-(8-(2-fluorobenzyl)imidazo[1,2-a]pyrazin-6-yl)-5-methyl-6-oxo-6,7-dihydro-5H-pyrrolo[2,3-d]pyrimidine-5-carboxamide], for which the EC50 stood at 38 nM and the “% Act.” value is 179%.

In the case of `O=C1Nc2nc(-c3cn4ccnc4c(Cc4ccc(F)cc4)n3)ncc2C1(C(=O)NC1CC1)C1CC1` (single isomer, unassigned) [Example 68A, N,5-dicyclopropyl-2-(8-(4-fluorobenzyl)imidazo[1,2-a]pyrazin-6-yl)-6-oxo-6,7-dihydro-5H-pyrrolo[2,3-d]pyrimidine-5-carboxamide], the Emax was determined as 138% and the EC50 amounted to 254 nM.

Turning to `CC(C)C1(C)C(=O)Nc2nc(-c3cn4ccnc4c(Cc4ccccc4)n3)ncc21` (single isomer, unassigned) [Example 95A, 2-(8-Benzylimidazo[1,2-a]pyrazin-6-yl)-5-isopropyl-5-methyl-5H-pyrrolo[2,3-d]pyrimidin-6(7H)-one], the Emax was 113% and the EC50 is 36 nM.

For `CCCCc1nc(-c2ncc3c(n2)NC(=O)C3(c2ccc(OC(F)(F)F)cc2)C2CC2)cn2ccnc12` (stereo not drawn) [Example 51A, 2-(8-butylimidazo[1,2-a]pyrazin-6-yl)-5-cyclopropyl-5-(4-(trifluoromethoxy)phenyl)-5H-pyrrolo[2,3-d]pyrimidin-6(7H)-one], the Emax came to 98% and the EC50 was 56 nM.

In the case of `O=C1Nc2nc(-c3cn4ccnc4c(Cc4ccccc4F)n3)ncc2C1(C(=O)NC1CC1)C1CC1` (single isomer, unassigned) [Example 70B, N,5-dicyclopropyl-2-(8-(2-fluorobenzyl)imidazo[1,2-a]pyrazin-6-yl)-6-oxo-6,7-dihydro-5H-pyrrolo[2,3-d]pyrimidine-5-carboxamide], the EC50 amounted to 61 nM and the “% Act.” value stood at 130%.

As to `CCCCc1nc(-c2ncc3c(n2)NC(=O)C3(c2ccc(F)c(F)c2)C2CC2)cn2ccnc12` (stereo not drawn) [Example 43A, 2-(8-butylimidazo[1,2-a]pyrazin-6-yl)-5-cyclopropyl-5-(3,4-difluorophenyl)-5H-pyrrolo[2,3-d]pyrimidin-6(7H)-one], the Emax was found to be 112% and the EC50 was 7 nM.

Take `O=C1Nc2nc(-c3cn4ccnc4c(Cc4ccccc4F)n3)ncc2C1(C(=O)NC1CC1)C1CC1` (single isomer, unassigned) [Example 70A, N,5-dicyclopropyl-2-(8-(2-fluorobenzyl)imidazo[1,2-a]pyrazin-6-yl)-6-oxo-6,7-dihydro-5H-pyrrolo[2,3-d]pyrimidine-5-carboxamide]: the EC50 is 179 nM and the “% Act.” value was 169%.

In the case of `CCCCc1nc(-c2ncc3c(n2)NC(=O)C3(c2ccc(Cl)cc2F)C2CC2)cn2ccnc12` (stereo not drawn) [Example 45A, 2-(8-butylimidazo[1,2-a]pyrazin-6-yl)-5-(4-chloro-2-fluorophenyl)-5-cyclopropyl-5H-pyrrolo[2,3-d]pyrimidin-6(7H)-one], the Emax amounted to 93% and the EC50 is 5 nM.
